Data on 1 molecule can be found in EP2508186A1, “Phenoxazinones or phenothiazones as inhibitors of amyloid formation” (Max-Delbrück-Centrum für Molekulare Medizin, priority 2011, dated 2012).

Some results are limits rather than exact numbers.

The test system of assay [1] is hippocampal rat brain slices. In words: Hippocampal long-term potentiation (LTP) in brain slices, CA1 area. Particulars: Aβ42 monomers and small oligomers added to slices, with 04; LTP evoked by high-frequency stimulation. The method, then:
Finally, we investigated whether 04 treatment influences Aβ42-mediated impairment of hippocampal long-term potentiation (LTP) in rat brain slices (Wang, 2004; Walsh, 2002). A preparation of Aβ42 peptides containing monomers and small oligomers was added to hippocampal brain slices and LTP was measured in the CA1 area.

The test system of assay [2] is primary cortical neurons. In words: Aβ42 toxicity in primary cortical neurons. The format is cell-based. The following applies: after addition of 04 to neuronal cultures.
Assay [3] concerns the target T1, Aβ42 (Homo sapiens, UniProt P05067).
T1 construct: the amyloid-β 1-42 (Aβ42) peptide
In words: SDS-PAGE (silver staining / immunoblotting) of Aβ42 aggregation products. The format is biochemical. The method, then: 2.2.3. O4 promotes the formation of SDS-stable, protease-resistant protein aggregates. To investigate whether 04 treatment influences the stability of amyloid structures, we analyzed compound-treated Aβ42 aggregation reactions after 48 h with SDS-PAGE and silver staining (Fig. 3a). In the absence of 04, aggregation products resolved to monomers (-4 kDa), small oligomers (-10-12 and 14-16 kDa), medium-size oligomers (-100-150 kDa) and large aggregates (>250 kDa) in SDS gels, supporting previously published studies that Aβ42 monomers in vitro assemble into a heterogenous mixture of low and high molecular weight aggregate species (Bitan, 2003). However, in the presence of 04 an altered distribution of SDS-stable Aβ42 aggregate species was observed.
The effect of 04 on early aggregate species was also visible when treated and untreated Aβ42 preparations containing mainly small oligomers and protofibrils were analyzed after 24 h by SDS-PAGE and immunoblotting.
To investigate whether 04 treatment influences Aβ42 aggregate formation cell culture media were also analyzed by SDS-PAGE and silver staining (Fig. 9b). In-untreated samples, a relatively large amount of Aβ42 monomers (-4 kDa) and small oligomers (-12 kDa) was detected, while in 04 treated samples the concentration of these Aβ42 species was diminished.
On the technique in general: A western blot detects proteins with antibodies after separation by electrophoresis.

Assay [4] deals with T1, Aβ42. In words: Transmission electron microscopy (TEM/AFM) of Aβ42 aggregate species. The format is biochemical. The method, then: 2.1.1. Protein aggregation. For aggregation reactions, Aβ42 stock solution (1 mM in DMSO) was diluted in phosphate buffer (100 mM sodium phosphate, 10 mM NaCl, pH 7.4) to 15 µM and incubated in 1.5 ml Eppendorf tubes (Eppendorf, Germany) at 37°C. Generation of soluble Aβ42 oligomers was performed as described (Lambert, 1998). Aβ42 DMSO stock solutions were diluted in Ham's F12 medium without phenol red (Biosource) at a final peptide concentration of 100 µM, with or without test compounds. After brief vortexing, samples were incubated at 4-6°C for 24 h. Alternatively, Aβ42 oligomers were prepared as described in (Ma, 2006) by diluting DMSO stock solution to a final Aβ42 concentration of 110 µM in 10 mM HEPES buffer pH 7.4. Samples were incubated in a glass vial with a micro stir bar at 37°C for 24 h and subsequently centrifuged (Beckman Coulter Microfuge R, rotor F241.5P) at 13,000 rpm.
2.2.2. 04 promotes the assembly of seeding-competent, β-sheet-rich Aβ42 fibrils. To examine the morphology of 04-generated protein aggregates, time course experiments were carried out and evaluated by transmission electron microscopy (TEM). After an incubation period of 4 d, worm-like Aβ42 protofibrils (Walsh, 1999) with a length of ∼30-150 nm and a diameter of -5 nm were predominantly detected in untreated aggregation reactions (Fig. 2c). […] A similar result was obtained after an incubation period of 7 d (Fig. 2c). […] At the same time, the number of oligomeric structures was reduced in 04-treated aggregation reactions (p < 1*10^-4).
We then investigated whether 04 treatment influences the assembly of small Aβ42 oligomers, which are preferentially formed at low temperature in cell-free assays (Lambert, 1998). Aβ42 monomers were incubated for 24 h at 6-8°C in the presence and absence of 04 and formation of oligomers was analyzed by TEM. In agreement with previously published data soluble fractions of untreated aggregation reactions contained large numbers of predominantly spherical Aβ42 oligomers with a diameter of 5-15 nm (Fig. 3e). […] In the presence of 04 a relatively large number of long amyloid fibrils was detected in insoluble fractions, while such structures were not observed in the absence of the chemical compound. However, in pellet fractions of untreated aggregation reactions smaller protofibrillar aggregate species were detected by TEM (Fig. 3e).
Analysis of amyloid fibrils by TEM and AFM also support the antibody binding results. While untreated Aβ42 aggregates in agreement with previously published studies (Bieschke, 2005) are straight fibrils and show a plain, highly regular surface, such a fibrillar morphology was not detected with 04 treated samples (Fig. 7e and f).

Assay [5] deals with SH-SY5Y neuroblastoma cells. Nature of the assay: MTT assay of Aβ42 toxicity. The following applies: Aβ42 5 µM, different concentrations of 04, 48 h; Aβ42 alone ∼50% inhibition. Type of assay: cell-based. How it is done:
2.2.8. 04-mediated acceleration of amyloidogenesis reduces Aβ42 toxicity in cell-based assays and brain slices. To study whether O4-mediated conversion of aggregation intermediates into stable amyloid fibrils influences Aβ42 toxicity, SH-SY5Y neuroblastoma cells were incubated for 48 h with soluble Aβ42 peptides and different concentrations of 04. Viability of cells was examined using a 3-(4,5-dimethylthiazol-2yl)-2,5-diphenyltetrazolium bromide (MTT) assay (Hansen, 1989).
(Tetrazolium dyes change colour on reduction, which living cells bring about.)

The target in assay [6] is T1, Aβ42. In words: Thioflavin T (ThT) seeding assay with 04-generated Aβ42 fibrils. Type of assay: biochemical. Particulars: fibrils produced with equimolar or 5-fold excess 04, sonicated seeds 3 % v/v added to Aβ42 15 µM monomers. An excerpt: We also investigated whether 04-generated Aβ42 fibrils are indeed seeding-competent structures. Amyloid fibrils were produced in vitro in the presence and absence of 04 and added as seeds to an excess of unpolymerized Aβ42 monomers. The formation of β-sheet-rich amyloid fibrils was then monitored over time using a Thioflavin T (ThT) dye binding assay (LeVine, 1999). […] Thus, the β-sheet-rich Aβ42 fibrils produced in the presence of 04 are seeding-competent structures that efficiently promote amyloid fibrillogenesis.

T1 sequence (P05067 672-713 limits assumed): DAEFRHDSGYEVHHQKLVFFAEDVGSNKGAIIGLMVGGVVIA

For the molecule `O=c1cc2oc3cc(O)c(-c4ccc(O)cc4O)cc3nc-2cc1-c1ccc(O)cc1O` [Compound 04, 2,8-bis-(2,4-dihydroxyphenyl)-7-hydroxy-phenoxazin-3-one], in assay [1], the “Aβ42 oligomer block of LTP” value is reported as “suppressed”. In assay [2], the Aβ42-mediated cellular toxicity entry is “significantly reduced”. For the same molecule, the “distribution of SDS-stable Aβ42 aggregate species (SDS-PAGE, silver staining)” value in assay [3] (Aβ42 15 µM, 04 1.5-150 µM, 48 h, 37°C, cell-free) is “the relative amount of medium-size, SDS-stable oligomers and large aggregates was increased, while the amount of monomers and small oligomers was decreased”. Besides, the “Aβ42 monomers and small oligomers in cell culture media (SDS-PAGE, silver staining)” value in assay [3] (SH-SY5Y culture media, Aβ42 5 µM, 04 5 µM or 25 µM, 48 h) was “diminished”. Besides, in assay [3] (preformed Aβ42 oligomers 110 µM, 04 30, 100 and 300 µM, 24 h), the “assembly of higher molecular weight Aβ42 aggregates (SDS-PAGE, immunoblotting)” value was “stimulates the assembly of SDS-stable, higher molecular weight Aβ42 aggregates in a concentration-dependent manner”. Also, in assay [4] (Aβ42 15 µM, 04 75 µM, 4 d non-agitated, 37°C), the “morphology of amyloid fibrils (TEM and AFM)” value was “mostly bent amyloid fibrils with a rough, irregular surface”. The “number of oligomeric structures” value in assay [4] (Aβ42 15 µM, 04 150 µM, after 48 h, p < 1*10^-4) was “reduced”. Also, the “number of long amyloid fibrils” value in assay [4] (Aβ42 15 µM, 04 150 µM, after 48 h, untreated control 1.3%, p < 1*10^-5) stood at 27%. Moreover, the “length of amyloid fibrils” value in assay [4] (Aβ42 15 µM, 04 150 µM, incubation 4 d, untreated: protofibrils ∼30-150 nm) was > 500 nm. In assay [4] (Aβ42 100 µM, 04 10-fold molar excess, 24 h at 6-8°C in F12 medium), the “spherical Aβ42 oligomers in soluble fractions (TEM)” value is given as “only very rarely detected”. Also, in assay [5], the “Aβ42-caused inhibition of MTT reduction” value is reported as “suppressed in a concentration-dependent manner”. In assay [6], the “seeding competence of 04-generated Aβ42 fibrils (ThT fluorescence)” value is “accelerate amyloid polymerization”.
